Data published in patent US6407135B1, “Conjugates of dithiocarbamates with pharmacologically active agents and uses therefor” (Medinox, Inc., priority 1997, dated 2002).

Test system: Lewis male rats
Settings: high doses, oral daily days 5-8 and 11-14; naproxen 10 mg/kg, conjugate 18 mg/kg

SMILES: COc1ccc2cc([C@H](C)C(=O)O)ccc2c1 [Naproxen, (S)-(+)-methoxy-α-methyl-2-naphthaleneacetic acid]
- Reduction of swelling compared to control by day 15: approximately 70%
